Publication PMC7179434, “1,2,4-Triazolo[1,5-a]pyrimidines as a Novel Class of Inhibitors of the HIV-1 Reverse Transcriptase-Associated Ribonuclease H Activity” (Molecules, 2020)
Entries after “also recorded” stand apart in the source; their conditions may differ. Read-outs that look alike come from different tables or passages of the source.

Key:
HIV-1 RNase H = biological target: HIV-1 RNase H; design: method as in ref 17-25, 27-29 (per compound as in Figure 1 legend); conditions: known allosteric RNHIs, 27-29 (per compound as in Figure 1 legend), cited from earlier work
HIV-1 RDDP = system: HIV-1 RDDP; design: method as in ref 17-21, 27-29 (per compound as in Figure 1 legend); conditions: known allosteric RNHIs; 27-29 (per compound as in Figure 1 legend); cited from earlier work
HIV-1 replication = conditions: cited from earlier work
cell growth = system: cell growth; design: method as in PMID 17184135, PMID 23631411; conditions: concentration that inhibits cell growth by 50%; read-out: CC50 (cytotoxicity); cited from earlier work
[1] = biological target: HIV-1 RT-associated RNase H (Human immunodeficiency virus type 1 group M subtype B, UniProt P03366); assay: biochemical; type: biochemical
HIV-2 RNase H = biological target: HIV-2 RNase H; design: method as in PMID 18831589; conditions: cited from earlier work
HIV-1 RT-associated RDDP = HIV-1 RT-associated RDDP (Human immunodeficiency virus type 1 group M subtype B, UniProt P03366); assay: biochemical; type: biochemical
HIV-1 (IIIB strain) = type: cell-based; conditions: acutely infected MT-4 cells
HIV-2 (ROD strain) = assay: Anti-HIV-2 activity in acutely infected MT-4 cells (MTT); type: cell-based
in vitro = conditions: human
[2] = 28 (per compound as in Figure 1 legend)

| Compound | IC50 (HIV-1 RNase H) [µM] | IC50 [1] [µM] | IC50 (HIV-1 RT-associated RDDP) [µM] | anti-HIV-1 (IIIB strain) activity (HIV-1 (IIIB strain)) | anti-HIV-2 (ROD strain) activity (HIV-2 (ROD strain)) | melting point [°C] | further results |
| --- | --- | --- | --- | --- | --- | --- | --- |
| COc1ccc2ccccc2c1/C=N/NC(=O)c1ccc(O)c(O)c1 [Compound 1] | 0.5 | – | – | – | – | – | IC50 (HIV-1 RDDP): > 25 µM; EC50 (HIV-1 replication; [2]): 5.5 µM; CC50 (cell growth): > 100 µM |
| NC(=O)c1c(N)sc2c1CCCCC2 [Compound 5] | 2 to 2.5 | 4 ± 0.5 | – | – | – | – | IC50 (HIV-1 RNase H; listed as 5 (NSC727447)): 2 µM; IC50 (HIV-2 RNase H): 2 to 2.5 µM; IC50 (HIV-2 RNase H; listed as 5 (NSC727447)): 2.5 µM; EC50 (HIV-1 replication) (HIV-1 replication; [2]): not active; selectivity index (SI) (HIV-1 replication; anti-HIV-1 activity vs cytotoxicity): 4 |
| O=c1[nH]c(-c2ccc(O)c(O)c2)nc2sc3c(c12)CCCCC3 [Compound 7] | 0.29 | – | – | – | – | – | EC50 (HIV-1 replication; [2]): 1.6 µM; CC50 (cell growth): 6.8 µM |
| Cc1cc(-c2ccccc2)n2nc(NC(=O)c3ccc(O)c(O)c3)nc2n1 [Compound 12g, 3,4-Dihydroxy-N-(5-methyl-7-phenyl-[1,2,4]triazolo[1,5-a]pyrimidin-2-yl)benzamide] | – | 0.8 ± 0.2 | > 100 | did not result in anti-HIV-1 activity in cellular context; also recorded: none of the compounds having RNase H inhibition showed anti-HIV activity at concentrations lower than those cytotoxic | none of the compounds having RNase H inhibition showed anti-HIV activity at concentrations lower than those cytotoxic | 285 to 288 | CC50 at 5 days (in vitro): 112 µM |
| Cc1cc(-c2ccccc2)nc2nc(NC(=O)c3ccc(O)c(O)c3)nn12 [Compound 13g, 3,4-Dihydroxy-N-(7-methyl-5-phenyl-[1,2,4]triazolo[1,5-a]pyrimidin-2-yl)benzamide] | – | 3.5 ± 1.5 | > 100 | none of the compounds having RNase H inhibition showed anti-HIV activity at concentrations lower than those cytotoxic | none of the compounds having RNase H inhibition showed anti-HIV activity at concentrations lower than those cytotoxic | 298 to 312 | – |
| O=C(Nc1nc2nc(-c3ccccc3)cc(-c3ccccc3)n2n1)c1ccc(O)c(O)c1 [Compound 15g, N-(5,7-diphenyl-[1,2,4]triazolo[1,5-a]pyrimidin-2-yl)-3,4-dihydroxybenzamide] | – | 1.86 ± 0.54 | 20.5 ± 4.1 | none of the compounds having RNase H inhibition showed anti-HIV activity at concentrations lower than those cytotoxic | none of the compounds having RNase H inhibition showed anti-HIV activity at concentrations lower than those cytotoxic | 258 to 260 | fold weaker potency against RDDP than against RNase H (HIV-1 RT-associated RDDP; RDDP IC50 vs RNase H IC50): 10 fold |
| Cc1cc(-c2ccc(O)c(O)c2)n2nc(NC(=O)c3ccccc3)nc2n1 [Compound 17h, N-(7-(3,4-dihydroxyphenyl)-5-methyl-[1,2,4]triazolo[1,5-a]pyrimidin-2-yl)benzamide] | – | 1.13 ± 0.33 | > 100 | none of the compounds having RNase H inhibition showed anti-HIV activity at concentrations lower than those cytotoxic | none of the compounds having RNase H inhibition showed anti-HIV activity at concentrations lower than those cytotoxic | 260 to 263 | – |
| Cc1cc(-c2ccccc2)n2nc(C(=O)Nc3ccc(O)c(O)c3)nc2n1 [Compound 18g, N-(3,4-Dihydroxyphenyl)-5-methyl-7-phenyl-[1,2,4]triazolo[1,5-a]pyrimidine-2-carboxamide] | – | 0.41 ± 0.005 | > 100 | did not result in anti-HIV-1 activity in cellular context; also recorded: none of the compounds having RNase H inhibition showed anti-HIV activity at concentrations lower than those cytotoxic | none of the compounds having RNase H inhibition showed anti-HIV activity at concentrations lower than those cytotoxic | 278 to 281 | – |
